Assay results reported in US11248234B2, “Herbicide-resistant hydroxyphenylpyruvate dioxygenases” (BASF SE, priority 2015, dated 2022).
“Also recorded” adds a separate entry of the source.

What was measured:
SoHPPD Q317H = test: In vitro HPPD activity assay; assay type: biochemical, Scenedesmus obliquus; conditions: normalized on Arabidopsis wild-type HPPD (SEQ ID NO:42)
Experimental: (§1) HPPD produces homogentisic acid and CO2 from 4-hydroxyphenylpyruvate (4-HPP) and O2. The activity assay for HPPD is based on the analysis of homogentisic acid by reversed phase HPLC.
(§2) The assay mixture can contain 150 mM potassium phosphate buffer pH 7.0, 50 mM L-ascorbic acid, 100 μM Catalase (Sigma-Aldrich), 1 μM FeSO4 and 0.2 units of purified mutated HPPD enzyme in a total volume of 505 μl. 1 unit is defined as the amount of enzyme that is required to produce 1 nmol of HGA per minute at 20° C.
(§3) After a preincubation of 30 min the reaction is started by adding 4-HPP to a final concentration of 0.05 mM. The reaction is allowed to proceed for 45 min at room temperature. The reaction is stopped by the addition of 50 μl of 4.5 M phosphoric acid. The sample is filtered using a […] pore size PVDF filtration device.
(§4) 5 μl of the cleared sample is analyzed on an UPLC HSS T3 column (particle size 1.8 μm, dimensions 2.1×50 mm; Waters) by isocratic elution using 90% 20 mM NaH2PO4 pH 2.2, 10% methanol (v/v).
(§5) HGA is detected electrochemically at 750 mV (mode: DC; polarity: positive) and quantified by integrating peak areas (Empower software; Waters).
(§6) Inhibitors are dissolved in DMSO (dimethylsulfoxide) to a concentration of 0.5 mM. From this stock solution serial five-fold dilutions are prepared in DMSO, which are used in the assay. The respective inhibitor solution accounts for 1% of the assay volume. Thus, final inhibitor concentrations range from 5 μM to 320 pM, respectively. Activities are normalized by setting the uninhibited enzyme activity to 100%. IC50 values are calculated using non-linear regression.
(§7) Using methods which are described in the above examples or well known in the art, purified, recombinant mutated HPPD enzymes are characterized with respect to their kinetic properties and sensitivity towards HPPD inhibiting herbicides. Apparent michaelis constants (Km) and maximal reaction velocities (Vmax) are calculated by non-linear regression with the software GraphPad Prism 5 (GraphPad Software, La Jolla, USA) using a substrate inhibition model. Apparent kcat values are calculated from Vmax assuming 100% purity of the enzyme preparation. Weighted means (by standard error) of Km and IC50 values are calculated from at least three independent experiments. The Cheng-Prusoff equation for competitive inhibition (Cheng, Y. C.; Prusoff, W. H. Biochem Pharmacol 1973, 22, 3099-3108) is used to calculate dissociation constants (Ki).
(§8) Field performance of the HPPD enzyme, which is used as a herbicide tolerance trait may depend not only on its lack of sensitivity towards HPPD inhibiting herbicides but also on its activity. To assess the potential performance of a herbicide tolerance trait a tolerance index (TI) is calculated using the following formula: […]
(§9) Easy comparison and ranking of each trait is enabled by normalizing tolerance indexes on Arabidopsis wild-type HPPD.

SoHPPD V251A (short) = test: In vitro HPPD activity assay; assay type: biochemical, Scenedesmus obliquus; conditions: normalized on Arabidopsis wild-type HPPD (SEQ ID NO:42)
Experimental: as §1, §2, §3, §4, §5, §6, §7, §8, §9

SoHPPD A318R, L350M = test: In vitro HPPD activity assay; assay type: biochemical, Scenedesmus obliquus; conditions: normalized on Arabidopsis wild-type HPPD (SEQ ID NO:42)
Experimental: as §1, §2, §3, §4, §5, §6, §7, §8, §9

[1] = tested on: SoHPPD Q317H, A318G, E345Q; test: In vitro HPPD activity assay; assay type: biochemical, Scenedesmus obliquus; conditions: normalized on Arabidopsis wild-type HPPD (SEQ ID NO:42)
Experimental: as §1, §2, §3, §4, §5, §6, §7, §8, §9

SoHPPD Q317H (short) = test: In vitro HPPD activity assay; assay type: biochemical, Scenedesmus obliquus; conditions: normalized on Arabidopsis wild-type HPPD (SEQ ID NO:42)
Experimental: as §1, §2, §3, §4, §5, §6, §7, §8, §9

[2] = tested on: SoHPPD A318R, L350M (short); test: In vitro HPPD activity assay; assay type: biochemical, Scenedesmus obliquus; conditions: normalized on Arabidopsis wild-type HPPD (SEQ ID NO:42)
Experimental: as §1, §2, §3, §4, §5, §6, §7, §8, §9

SoHPPD Q317M (short) = test: In vitro HPPD activity assay; assay type: biochemical, Scenedesmus obliquus; conditions: normalized on Arabidopsis wild-type HPPD (SEQ ID NO:42)
Experimental: as §1, §2, §3, §4, §5, §6, §7, §8, §9

SoHPPD F363I (short) = test: In vitro HPPD activity assay; assay type: biochemical, Scenedesmus obliquus; conditions: normalized on Arabidopsis wild-type HPPD (SEQ ID NO:42)
Experimental: as §1, §2, §3, §4, §5, §6, §7, §8, §9

SoHPPD E345Q (short) = test: In vitro HPPD activity assay; assay type: biochemical, Scenedesmus obliquus; conditions: normalized on Arabidopsis wild-type HPPD (SEQ ID NO:42)
Experimental: as §1, §2, §3, §4, §5, §6, §7, §8, §9

[3] = tested on: SoHPPD F39W, L367V, I375L (short); test: In vitro HPPD activity assay; assay type: biochemical, Scenedesmus obliquus; conditions: normalized on Arabidopsis wild-type HPPD (SEQ ID NO:42)
Experimental: as §1, §2, §3, §4, §5, §6, §7, §8, §9

[4] = tested on: SoHPPD L367V, I375L (short); test: In vitro HPPD activity assay; assay type: biochemical, Scenedesmus obliquus; conditions: normalized on Arabidopsis wild-type HPPD (SEQ ID NO:42)
Experimental: as §1, §2, §3, §4, §5, §6, §7, §8, §9

SoHPPD E379Q (short) = test: In vitro HPPD activity assay; assay type: biochemical, Scenedesmus obliquus; conditions: normalized on Arabidopsis wild-type HPPD (SEQ ID NO:42)
Experimental: as §1, §2, §3, §4, §5, §6, §7, §8, §9

SoHPPD H306K (short) = test: In vitro HPPD activity assay; assay type: biochemical, Scenedesmus obliquus; conditions: normalized on Arabidopsis wild-type HPPD (SEQ ID NO:42)
Experimental: as §1, §2, §3, §4, §5, §6, §7, §8, §9

SoHPPD L367V, I375L = test: In vitro HPPD activity assay; assay type: biochemical, Scenedesmus obliquus; conditions: normalized on Arabidopsis wild-type HPPD (SEQ ID NO:42)
Experimental: as §1, §2, §3, §4, §5, §6, §7, §8, §9

[5] = tested on: SoHPPD A318P, A319P (short); test: In vitro HPPD activity assay; assay type: biochemical, Scenedesmus obliquus; conditions: normalized on Arabidopsis wild-type HPPD (SEQ ID NO:42)
Experimental: as §1, §2, §3, §4, §5, §6, §7, §8, §9

[6] = tested on: SoHPPD Q317H, A318G, E345Q (short); test: In vitro HPPD activity assay; assay type: biochemical, Scenedesmus obliquus; conditions: normalized on Arabidopsis wild-type HPPD (SEQ ID NO:42)
Experimental: as §1, §2, §3, §4, §5, §6, §7, §8, §9

[7] = tested on: SoHPPD K326E, E345Q (short); test: In vitro HPPD activity assay; assay type: biochemical, Scenedesmus obliquus; conditions: normalized on Arabidopsis wild-type HPPD (SEQ ID NO:42)
Experimental: as §1, §2, §3, §4, §5, §6, §7, §8, §9

SoHPPD I419V (short) = test: In vitro HPPD activity assay; assay type: biochemical, Scenedesmus obliquus; conditions: normalized on Arabidopsis wild-type HPPD (SEQ ID NO:42)
Experimental: as §1, §2, §3, §4, §5, §6, §7, §8, §9

SoHPPD I455V = test: In vitro HPPD activity assay; assay type: biochemical, Scenedesmus obliquus; conditions: normalized on Arabidopsis wild-type HPPD (SEQ ID NO:42)
Experimental: as §1, §2, §3, §4, §5, §6, §7, §8, §9

SoHPPD F363I = test: In vitro HPPD activity assay; assay type: biochemical, Scenedesmus obliquus; conditions: normalized on Arabidopsis wild-type HPPD (SEQ ID NO:42)
Experimental: as §1, §2, §3, §4, §5, §6, §7, §8, §9

[8] = biological target: T1, Arabidopsis HPPD (Seq ID: 42) (Arabidopsis thaliana, UniProt P93836); test: In vitro HPPD activity assay (homogentisic acid by HPLC); assay type: biochemical; conditions: benchmark enzyme; normalized on Arabidopsis wild-type HPPD
T1 construct: His6; made in house; host or cells: E. coli BL21 (DE3)
T1 sequence (P93836 1-445): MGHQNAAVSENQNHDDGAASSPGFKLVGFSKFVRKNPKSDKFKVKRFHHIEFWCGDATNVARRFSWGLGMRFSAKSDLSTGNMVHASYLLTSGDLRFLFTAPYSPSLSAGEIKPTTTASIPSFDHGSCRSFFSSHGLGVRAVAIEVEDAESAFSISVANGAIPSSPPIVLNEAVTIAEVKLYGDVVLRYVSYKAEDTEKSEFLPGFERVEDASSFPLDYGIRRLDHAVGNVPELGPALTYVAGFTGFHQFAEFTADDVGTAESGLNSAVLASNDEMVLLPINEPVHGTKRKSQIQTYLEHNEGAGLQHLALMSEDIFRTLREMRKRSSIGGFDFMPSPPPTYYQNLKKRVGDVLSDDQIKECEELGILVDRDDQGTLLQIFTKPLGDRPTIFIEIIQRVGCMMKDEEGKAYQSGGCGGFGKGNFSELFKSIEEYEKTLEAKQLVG
Experimental: as §1, §2, §3, §4, §5
as §6, with “Thus, final inhibitor concentrations range from 5 μM to 320 pM, respectively.” left out
as §7, with “Apparent kcat values are calculated from Vmax assuming 100% purity of the enzyme preparation.” left out, “experiments.” for “experiments. The Cheng-Prusoff equation for competitive inhibition (Cheng, Y. C.; Prusoff, W. H. Biochem Pharmacol 1973, 22, 3099-3108) is used to calculate dissociation constants (Ki).”
as §8, §9

[9] = biological target: Scenedesmus Short HPPD (Seq ID: 4) (Tetradesmus obliquus, UniProt A0A383WMN4, DEL398-433/N195D); test: In vitro HPPD activity assay; assay type: biochemical; conditions: normalized on Arabidopsis wild-type HPPD (SEQ ID NO:42)
Sequence of Scenedesmus Short HPPD (Seq ID: 4) (A0A383WMN4 entry or part of it N195D/DEL398-433): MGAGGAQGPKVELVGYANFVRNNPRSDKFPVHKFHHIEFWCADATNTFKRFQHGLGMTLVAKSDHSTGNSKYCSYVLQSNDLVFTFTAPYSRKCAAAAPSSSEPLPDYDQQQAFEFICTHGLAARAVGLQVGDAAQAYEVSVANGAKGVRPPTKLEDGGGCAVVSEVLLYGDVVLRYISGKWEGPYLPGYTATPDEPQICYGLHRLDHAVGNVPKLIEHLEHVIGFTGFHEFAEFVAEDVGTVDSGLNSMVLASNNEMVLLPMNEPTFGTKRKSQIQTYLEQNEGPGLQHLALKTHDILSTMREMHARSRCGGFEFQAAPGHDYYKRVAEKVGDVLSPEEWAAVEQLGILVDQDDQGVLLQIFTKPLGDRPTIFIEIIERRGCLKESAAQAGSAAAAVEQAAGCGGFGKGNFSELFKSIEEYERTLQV
Experimental: as §1, §2, §3, §4, §5, §6, §7, §8, §9

[10] = biological target: Scenedesmus HPPD (Seq ID: 2) (Tetradesmus obliquus, UniProt A0A383WMN4, N195D); test: In vitro HPPD activity assay; assay type: biochemical; conditions: normalized on Arabidopsis wild-type HPPD (SEQ ID NO:42)
Sequence of Scenedesmus HPPD (Seq ID: 2) (A0A383WMN4 entry or part of it N195D): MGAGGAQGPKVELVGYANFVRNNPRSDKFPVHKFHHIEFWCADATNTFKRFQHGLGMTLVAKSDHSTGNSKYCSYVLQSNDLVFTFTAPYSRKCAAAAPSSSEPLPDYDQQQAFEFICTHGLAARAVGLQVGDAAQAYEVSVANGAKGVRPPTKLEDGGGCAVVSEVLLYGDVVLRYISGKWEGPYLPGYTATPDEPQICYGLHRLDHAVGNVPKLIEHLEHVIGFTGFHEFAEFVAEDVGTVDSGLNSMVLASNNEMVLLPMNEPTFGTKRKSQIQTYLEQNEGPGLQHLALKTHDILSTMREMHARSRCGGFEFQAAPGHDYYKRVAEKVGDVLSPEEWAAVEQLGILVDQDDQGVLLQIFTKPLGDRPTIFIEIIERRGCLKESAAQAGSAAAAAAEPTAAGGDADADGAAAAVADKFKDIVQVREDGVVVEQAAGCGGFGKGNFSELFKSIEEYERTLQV
Experimental: as §1, §2, §3, §4, §5, §6, §7, §8, §9

**Q.** `CC[S+]([O-])c1c(Cl)cc(F)c(C(=O)Nc2nnnn2C)c1Cl` (centres unmarked) [Inhibitor 9, 2,4-dichloro-3-ethylsulfinyl-6-fluoro-N-(1-methyltetrazol-5-yl)benzamide] was tested. Which “TI (normalized tolerance index)” value (SoHPPD Q317H) did it give?
**A.** The value was 0.1.

**Q.** And the “TI (normalized tolerance index)” value (SoHPPD V251A (short))?
**A.** Its value is 0.1.

**Q.** What about the “TI (normalized tolerance index)” value (SoHPPD A318R, L350M) of the same compound?
**A.** Its value is 0.2.

**Q.** What about the “TI (normalized tolerance index)” value [1] of the same compound?
**A.** Its value is 0.1.

**Q.** And the “TI (normalized tolerance index)” value (SoHPPD Q317H (short))?
**A.** Its value is 0.7.

**Q.** What about the “TI (normalized tolerance index)” value [2] of the same compound?
**A.** Its value is 1.2.

**Q.** And the “TI (normalized tolerance index)” value (SoHPPD Q317M (short))?
**A.** Its value is 1.1.

**Q.** And the “TI (normalized tolerance index)” value (SoHPPD F363I (short))?
**A.** Its value is “not inhibited; also recorded: no inhi-”.

**Q.** And the “TI (normalized tolerance index)” value (SoHPPD E345Q (short))?
**A.** Its value is 0.2.

**Q.** What about the “TI (normalized tolerance index)” value [3] of the same compound?
**A.** Its value is 0.2.

**Q.** And the “TI (normalized tolerance index)” value [4]?
**A.** Its value is 0.4.

**Q.** What about the “TI (normalized tolerance index)” value (SoHPPD E379Q (short)) of the same compound?
**A.** The value was 0.2.

**Q.** What about the “TI (normalized tolerance index)” value (SoHPPD H306K (short)) of the same compound?
**A.** The value was 0.2.

**Q.** And the “TI (normalized tolerance index)” value (SoHPPD L367V, I375L)?
**A.** The value was 0.1.

**Q.** And the “TI (normalized tolerance index)” value [5]?
**A.** Its value is 0.7.

**Q.** And the “TI (normalized tolerance index)” value [6]?
**A.** Its value is 0.9.

**Q.** And the “TI (normalized tolerance index)” value [7]?
**A.** Its value is 0.1.

**Q.** And the “TI (normalized tolerance index)” value (SoHPPD I419V (short))?
**A.** Its value is 0.3.

**Q.** And the “TI (normalized tolerance index)” value (SoHPPD I455V)?
**A.** Its value is 0.4.

**Q.** And the “TI (normalized tolerance index)” value (SoHPPD F363I)?
**A.** Its value is 2,7.

**Q.** And the “TI (normalized tolerance index)” value [8]?
**A.** The value was 1.0.

**Q.** And the “TI (normalized tolerance index)” value [9]?
**A.** Its value is 1.2.

**Q.** And the “TI (normalized tolerance index)” value [10]?
**A.** The value was 0.1.
